Experimental data from paper PMC11818404, “Experimental and Computational Investigation of the Target and Mechanisms of Gelsemium Alkaloids in the Central Nervous System” (International Journal of Molecular Sciences, 2025).
Read-outs that look alike come from different tables or passages of the source.

Columns and labels:
α1 GlyR = molecular target: T1, α1 GlyR (Homo sapiens, UniProt P23415); assay: Whole-cell patch-clamp of glycine-evoked currents, transfected HEK293 cells; format: cell-based; conditions: for activity on GlyR currents (in words): GlyRs (α1 and α1β), single concentration 300 µM; for percentage change in peak current modulation: alkaloid 300 µM co-applied with subsaturated glycine, mean ± SE
T1 construct: expressed in transfected cells; host or cells: HEK293
T1 sequence (P23415 29-449 isoform P23415-2 limits assumed): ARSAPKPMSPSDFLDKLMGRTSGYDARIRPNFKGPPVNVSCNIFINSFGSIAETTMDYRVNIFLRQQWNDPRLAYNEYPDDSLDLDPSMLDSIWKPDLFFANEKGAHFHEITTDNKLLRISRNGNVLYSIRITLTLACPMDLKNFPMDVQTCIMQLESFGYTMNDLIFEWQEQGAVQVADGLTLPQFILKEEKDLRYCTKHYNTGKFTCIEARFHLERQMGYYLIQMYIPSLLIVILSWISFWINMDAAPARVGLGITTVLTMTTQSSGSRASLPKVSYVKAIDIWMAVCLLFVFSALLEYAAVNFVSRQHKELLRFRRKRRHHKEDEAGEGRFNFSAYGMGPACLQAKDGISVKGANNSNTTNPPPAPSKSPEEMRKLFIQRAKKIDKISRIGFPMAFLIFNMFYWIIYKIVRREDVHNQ
Description: (§1) HEK293 cells were obtained from Beijing Aisiyipu Biotechnology Co. Cells were cultured in Dulbecco’s Modified Eagle Medium containing 10% fetal bovine serum, 800 µg/mL G418, 200 µg/mL hygromycin B, and 100 µg/mL Zeocin at 37 °C and 5% CO2. Cells were transfected with plasmids encoding the following proteins: (i). nAChRα7 (CHRNA7, NM_000746; RIC3, NM_024557), (ii) GABA-α1 (NM_000806), GABA-β2 (NM_021911), and GABA-γ2 (NM_198904), and (iii) GlyR α1 (NM_000171) and GlyR β (NM_000824). To obtain β-containing GlyRs, an α/β transfection ratio of 1:5 was used; for γ2-containing GABAARs, the ratio was 1:2:5 of α/β/γ2.
(§2) For whole-cell recording, the […] contained 140 mM NaCl, 3.5 mM KCl, 1 mM MgCl2•6H2O, 2 mM CaCl2•2H2O, 10 mM D-glucose, 10 mM HEPES, and 1.25 mM NaH2PO4•2H2O, (pH 7.4). The […] solution contained 50 mM CsCl, 10 mM NaCl, 10 mM HEPES, 60 mM CsF, and 20 mM EGTA (pH 7.2). Briefly, during the diaphragm clamp operation, the glass capillary was drawn into a recording electrode using a microelectrode puller. Subsequently, the electrode filled with intracellular fluid was loaded into the microelectrode holder, and the cell-lined coverslip was placed in the recording bath under an inverted microscope, followed by manipulation of the microelectrode manipulator to immerse the electrode into the extracellular fluid under an inverted microscope. Electrode resistance (Rpip) was recorded, and the electrode was gently positioned on the cell surface with negative pressure applied to establish a GΩ-level high-resistance seal. Fast capacitance compensation was performed, followed by additional suction to breach the cell membrane and form a whole-cell recording. Finally, slow capacitance compensation was performed, and experimental parameters such as series resistance (Rs) were recorded. Leakage compensation was not provided. Whole-cell patch-clamp recordings were performed at −70 mV using HEKA EPC-10 (HEKA Elektronik GmbH, Reutlingen, Germany) amplifiers. Data acquisition was performed using the HEKA PatchMaster. We aimed to study the allosteric regulation of GABAAR and GlyR by Gelsemium alkaloids, so the effects of the alkaloids on Gly- or GABA-evoked currents were determined via co-application of subsaturated agonist concentrations (EC10 and EC50) together with the alkaloid. The EC50 for α1 GlyR was 30 µM, whereas the EC10 for α1β2γ2 GABAAR was 3.0 µM. The choice of specific agonist concentration was determined based on previous studies. We first examined the effects of each Gelsemium alkaloid at a concentration of 300 µM on channel currents. The peak receptor currents for subsaturated concentrations of specific agonists and the peak receptor currents after administration of each drug were recorded, and the modulation percentage was calculated for each drug. The modulation percentage was calculated using Equation (1):Percentage change = ((Ialkaloid − Iagonist)/Iagonist),(1) where Ialkaloid denotes the current in the presence of a given concentration of alkaloid, and Iagonist denotes the amplitude of the control glycine or GABA current elicited by the activation of a given receptor. To construct the concentration-response curve, six graded concentrations (1 µM, 3 µM, 10 µM, 30 µM, 100 µM, and 300 µM) of each Gelsemium alkaloid were tested. The concentration-response curve parameters for alkaloid inhibition were obtained from the curve of the normalized concentration-response data points fitted using Equation (2):Iagonist = Imax (agonist)nH/((agonist)nH + (EC50) nH), (2) where Iagonist is the current in the presence of a given subsaturated concentration of GABA, and EC50 is the concentration required for the half-maximal response. Each drug was repeated four times per concentration, and the data were expressed as the mean ± SE All electrophysiological tests performed at 20 °C.

α1β GlyR = molecular target: T2, α1β GlyR (Homo sapiens, UniProt P23415); assay: as above; format: cell-based; conditions: α1βGlyR; alkaloid 300 µM co-applied with subsaturated glycine; mean ± SE
T2 construct: expressed in transfected cells; host or cells: HEK293
T2 sequence (P48167 23-497 partner, one chain of several): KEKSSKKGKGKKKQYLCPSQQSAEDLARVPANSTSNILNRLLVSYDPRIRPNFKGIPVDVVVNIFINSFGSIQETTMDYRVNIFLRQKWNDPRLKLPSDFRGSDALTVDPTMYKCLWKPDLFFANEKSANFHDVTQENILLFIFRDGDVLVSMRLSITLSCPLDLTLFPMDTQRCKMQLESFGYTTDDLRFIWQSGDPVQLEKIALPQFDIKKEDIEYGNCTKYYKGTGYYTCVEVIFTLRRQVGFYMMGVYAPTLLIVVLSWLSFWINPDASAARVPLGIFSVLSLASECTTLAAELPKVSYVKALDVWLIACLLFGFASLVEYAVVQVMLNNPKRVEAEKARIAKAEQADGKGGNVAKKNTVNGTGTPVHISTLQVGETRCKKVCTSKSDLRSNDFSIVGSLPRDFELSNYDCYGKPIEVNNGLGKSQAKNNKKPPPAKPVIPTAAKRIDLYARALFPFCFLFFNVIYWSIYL
Description: as §1, §2

α1β2γ2 GABAAR = molecular target: T3, α1β2γ2 GABAAR (Homo sapiens, UniProt P14867+P18507+P47870); assay: Whole-cell patch-clamp of GABA-evoked currents, transfected HEK293 cells; format: cell-based; conditions: for Hillslope: GABAAR concentration-response curve; for percentage change in peak current modulation / IC50: GABAAR; for percentage change in peak current modulation: alkaloid 300 µM co-applied with subsaturated GABA, mean ± SE; for IC50: reduction of GABA-evoked current, n = 4
T3 construct: expressed in transfected cells; host or cells: HEK293
T3 sequence (P18507 40-475): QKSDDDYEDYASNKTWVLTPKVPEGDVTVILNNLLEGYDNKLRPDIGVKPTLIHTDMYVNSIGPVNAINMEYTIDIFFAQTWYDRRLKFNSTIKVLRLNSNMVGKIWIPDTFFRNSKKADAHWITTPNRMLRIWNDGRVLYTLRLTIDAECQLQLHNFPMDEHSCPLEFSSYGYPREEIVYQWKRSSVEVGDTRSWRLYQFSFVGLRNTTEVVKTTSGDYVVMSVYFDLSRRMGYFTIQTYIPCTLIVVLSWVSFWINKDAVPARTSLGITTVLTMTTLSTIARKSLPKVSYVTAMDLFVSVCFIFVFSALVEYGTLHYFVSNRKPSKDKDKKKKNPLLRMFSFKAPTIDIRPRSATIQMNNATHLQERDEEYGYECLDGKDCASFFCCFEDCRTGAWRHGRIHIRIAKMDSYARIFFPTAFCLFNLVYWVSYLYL
T3 sequence (P14867 28-456): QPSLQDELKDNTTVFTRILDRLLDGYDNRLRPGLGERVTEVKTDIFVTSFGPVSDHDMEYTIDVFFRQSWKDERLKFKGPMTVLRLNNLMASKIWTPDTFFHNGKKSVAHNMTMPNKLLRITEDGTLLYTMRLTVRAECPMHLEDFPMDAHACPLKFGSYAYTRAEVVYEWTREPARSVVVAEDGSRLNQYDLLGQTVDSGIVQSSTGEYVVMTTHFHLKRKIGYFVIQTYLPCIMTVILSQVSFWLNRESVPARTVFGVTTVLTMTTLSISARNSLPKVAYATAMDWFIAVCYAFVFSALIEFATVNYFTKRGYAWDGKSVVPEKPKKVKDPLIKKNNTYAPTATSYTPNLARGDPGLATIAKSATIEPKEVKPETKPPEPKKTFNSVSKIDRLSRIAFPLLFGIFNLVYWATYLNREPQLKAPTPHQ
T3 sequence (P47870 26-512): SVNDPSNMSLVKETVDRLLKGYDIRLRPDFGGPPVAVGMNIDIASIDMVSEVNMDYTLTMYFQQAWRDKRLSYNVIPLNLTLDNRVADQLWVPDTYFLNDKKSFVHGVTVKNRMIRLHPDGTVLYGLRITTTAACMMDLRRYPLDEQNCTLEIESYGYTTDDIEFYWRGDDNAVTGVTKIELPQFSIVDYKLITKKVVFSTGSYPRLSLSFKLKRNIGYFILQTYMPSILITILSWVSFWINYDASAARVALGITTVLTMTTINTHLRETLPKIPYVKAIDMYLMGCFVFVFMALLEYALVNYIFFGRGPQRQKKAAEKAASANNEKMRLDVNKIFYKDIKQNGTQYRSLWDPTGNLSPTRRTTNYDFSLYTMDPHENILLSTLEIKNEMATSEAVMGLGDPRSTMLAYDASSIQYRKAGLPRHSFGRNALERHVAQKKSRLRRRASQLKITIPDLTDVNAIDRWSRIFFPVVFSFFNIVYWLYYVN

nAChRα7 = molecular target: T4, nAChRα7 (Homo sapiens, UniProt P36544); assay: Whole-cell patch-clamp of acetylcholine ion channel currents, transfected HEK293 cells; format: cell-based; conditions: nACHR; alkaloid 300 µM; mean ± SE
T4 construct: expressed in transfected cells; host or cells: HEK293
T4 sequence (P36544 23-502): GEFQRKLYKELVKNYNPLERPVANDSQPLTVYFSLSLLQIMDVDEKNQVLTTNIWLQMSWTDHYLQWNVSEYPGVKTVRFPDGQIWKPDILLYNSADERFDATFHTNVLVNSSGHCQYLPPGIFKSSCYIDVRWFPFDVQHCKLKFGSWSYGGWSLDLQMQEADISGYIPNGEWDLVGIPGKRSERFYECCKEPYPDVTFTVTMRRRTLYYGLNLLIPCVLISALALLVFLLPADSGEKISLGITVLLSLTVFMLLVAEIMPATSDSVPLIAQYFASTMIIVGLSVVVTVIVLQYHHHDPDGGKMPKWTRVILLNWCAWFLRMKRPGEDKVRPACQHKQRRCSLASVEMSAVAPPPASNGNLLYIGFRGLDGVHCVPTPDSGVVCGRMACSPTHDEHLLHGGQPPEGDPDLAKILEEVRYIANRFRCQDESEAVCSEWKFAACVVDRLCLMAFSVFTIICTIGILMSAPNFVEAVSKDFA
Description: as §1
For whole-cell recording, the […] contained 140 mM NaCl, 3.5 mM KCl, 1 mM MgCl2•6H2O, 2 mM CaCl2•2H2O, 10 mM D-glucose, 10 mM HEPES, and 1.25 mM NaH2PO4•2H2O, (pH 7.4). […] Electrode resistance (Rpip) was recorded, and the electrode was gently positioned on the cell surface with negative pressure applied to establish a GΩ-level high-resistance seal. […] Finally, slow capacitance compensation was performed, and experimental parameters such as series resistance (Rs) were recorded. […] We aimed to study the allosteric regulation of GABAAR and GlyR by Gelsemium alkaloids, so the effects of the alkaloids on Gly- or GABA-evoked currents were determined via co-application of subsaturated agonist concentrations (EC10 and EC50) together with the alkaloid. […]

GABAAR = tested on: GABAAR; design: method as in PMID 32541553, PMID 32391682; conditions: read-out: EC50 for positive allosteric modulation of GABAAR; cited from earlier work
GlyR = conditions: read-out: IC50 for GlyR; cited from earlier work
[1] = α1GlyR, reduction of glycine-evoked current, n = 4, read-out: IC50

Molecule	activity on GlyR currents (in words) (α1 GlyR)	percentage change in peak current modulation (α1 GlyR; α1GlyR)	IC50 (α1 GlyR; [1]) [µM]	percentage change in peak current modulation (α1β GlyR)	Hillslope (α1β2γ2 GABAAR)	percentage change in peak current modulation (α1β2γ2 GABAAR)	IC50 (α1β2γ2 GABAAR) [µM]	percentage change in peak current modulation (nAChRα7)	EC50 (GABAAR) [µM]	IC50 (GlyR) [µM]	IC50 (α1 GlyR) [µM]	EC50 (α1β2γ2 GABAAR) [µM]
C=C[C@]12CN(C)[C@@H]3[C@H]4CO[C@H](C[C@H]41)[C@]1(C(=O)N(OC)c4ccccc41)[C@@H]32 [Gelsevirine, gelsevirine]	strong activity	−98.89% ± 0.68%	82.9	−99.06% ± 0.62%	−1.110	−55.82% ± 0.35%	252	0.75% ± 0.65%	–	–	–	–
CN1C(=O)CN=C(c2ccccc2)c2cc(Cl)ccc21 [diazepam]	–	–	–	–	–	–	–	–	~0.005	–	–	–
C=C[C@@]12CN(C)[C@H]3C[C@]14C(=Nc1ccccc14)[C@H]1C[C@@H]2[C@@H]3CO1 [Koumine, koumine]	strong activity	−95.53% ± 0.70%	9.59	−87.29% ± 0.52%	–	–	–	1.42% ± 0.00%	–	–	–	–
O=C1C[C@@H]2OCC=C3CN4CC[C@]56c7ccccc7N1[C@H]5[C@H]2[C@H]3C[C@H]46 [strychnine]	–	–	–	–	–	–	–	–	–	~0.18	–	–
C=C[C@]12CN(C)[C@@H]3[C@H]4CO[C@H](C[C@H]41)[C@]1(C(=O)Nc4ccccc41)[C@@H]32 [Gelsemine, gelsemine]	strong activity	−70.39% ± 4.85%	–	−92.18% ± 2.87%	−0.9158	−58.78% ± 1.74%	171	–	–	–	10.4	–
humantenirine	minimal effect	−11.75% ± 4.34%	–	−16.82% ± 4.41%	–	41.66% ± 0.53%	–	–	–	–	–	–
CCC1=N[C@H]2C[C@@]3(C(=O)N(OC)c4ccccc43)[C@H]3C[C@@H]1[C@@H]2CO3 [Gelsenicine, gelsenicine]	minimal effect	−13.64% ± 4.34%	–	−10.44% ± 5.99%	0.8002	58.63% ± 5.56%	–	–	–	–	–	192
